Laboratory results: ChEMBL document CHEMBL5725949, “Pyrazolopyridine derivatives and their use in therapy” (2018)

Assay: Antitrypanosomal Activity Assay: Antitrypanosomal activity was tested on T. brucei brucei bloodstream from parasites (strain¿Lister 427, VATMITat 1.2). Stock solutions of compounds (50 mM) were prepared in DMSO. Two fold serial dilutions of each compound (10 wells in each row) were prepared in 96 well plates in HMI111 medium (100 μl/well; quadruplicates; cf. also Hirumi et al., J. Parasitol. 75 (1989), 985-989). One well without compound, and one well with media alone were included in each row. Parasites grown in HMI11 were inoculated (100 μl of 4×10^4/ml) in all wells (except the well with ¿media alone¿) giving a final concentration of parasites of 2×10^4/ml. The plates were incubated for 66 hours at 37° C. in the incubator with 5% CO2. 20 μl resazurin (Sigma, 0.125 mg/ml in Hanks Balanced Salt Solution) was added to all wells and the plate was further incubated for 6 hours. Change in color of resazurin (blue to pink) by living cells was measured with a 96 well plate reader (excitation at 530 nm, emission at 585 nm, filter cut-off: 570 nm). Percent inhibition values were calculated by setting the well without compound to ¿0% inhibition¿.

Going from `COc1ccc(CN2CCc3c(c(C(=O)NCc4cccc5ccccc45)nn3CC(O)CN)C2)c2ccccc12` (stereo not drawn) to `COc1ccc(CN2CCc3c(c(C(=O)NCc4cccc5ccccc45)nn3CCNC(=N)N)C2)c2ccccc12`, the IC50 falls from 0.62 µM to 0.22 µM (2.8-fold). The second is the more potent here.

Going from `CC(=O)c1ccc(CN2CCc3c(c(C(=O)NCc4ccccc4)nn3CCO)C2)cc1` to `CCc1ccc(CN2CCc3c(c(C(=O)NCc4ccccc4)nn3CCO)C2)cc1`, the IC50 falls from 22.4 µM to 13.6 µM (1.6-fold).

`CC(NC(=O)c1nn(CCO)c2c1CN(Cc1cnn(-c3ccccc3)c1)CC2)c1ccccc1` (stereo not drawn) and `O=C(NCc1ccccc1)c1nn(CCO)c2c1CN(Cc1cnn(-c3ccccc3)c1)CC2` are within 1.5-fold of each other in IC50: 14.5 µM for the first, 12.7 µM for the second.

Compared with `C=CCn1nc(C(=O)NCc2ccccc2)c2c1CCN(Cc1ccc3ncccc3c1)C2`, `O=C(NCc1ccccc1)c1nn(CCO)c2c1CN(Cc1ccc3c(c1)OC=CO3)CC2` is 2.4-fold higher in IC50: 9.57 µM for the first, 23.3 µM for the second. The first is the more potent here.

`Cn1nc(C(=O)NCc2ccccc2)c2c1CCN(Cc1ccc(-c3ccccc3)cc1)C2` and `O=C(NCc1ccccc1)c1nn(CCO)c2c1CN(Cc1ccc(-c3ccccc3)cc1)CC2` are within 1.5-fold of each other in IC50: 4.08 µM for the first, 5.31 µM for the second.

Going from `COc1ccc2[nH]c(CN3CCc4c(c(C(=O)NCc5cccc6ccccc56)nn4CCO)C3)cc2c1` to `COc1ccc2c(CN3CCc4c(c(C(=O)NCc5cccc6ccccc56)nn4CCO)C3)c[nH]c2c1`, the IC50 falls from 7 µM to 2.5 µM (2.8-fold).

Compared with `COc1ccc(CN2CCc3c(c(C(=O)NCc4cccc5ccccc45)nn3CCN3CCOCC3)C2)c2ccccc12`, `COc1ccc(CN2CCc3c(c(C(=O)NCc4cccc5ccccc45)nn3C3CCC3)C2)c2ccccc12` is 2-fold higher in IC50: 0.99 µM for the first, 2 µM for the second.

Going from `Cn1nc(C(=O)NCc2cccc3ccccc23)c2c1CCN(Cc1cccc3ccccc13)C2` to `O=C(NCc1cccc2ccccc12)c1nn(CCO)c2c1CN(Cc1ccc(F)c3ccccc13)CC2`, the IC50 rises from 4.2 µM to 34 µM (8.1-fold). The first is the more potent here.

`O=C(NCc1cccc2ccccc12)c1nn(CCO)c2c1CN(Cc1ccc(C(F)(F)F)cc1)CC2` and `CCCc1ccc(CN2CCc3c(c(C(=O)NCc4cccc5ccccc45)nn3CCO)C2)cc1` are within 1.5-fold of each other in IC50: 2.99 µM for the first, 4.35 µM for the second.

`COc1ccc(CN2CCc3c(c(C(=O)NCc4cccc5ccccc45)nn3C3CCCC3)C2)c2ccccc12` and `COc1ccc(CN2CCc3c(c(C(=O)NCc4cccc5ccccc45)nn3C3CN(C(=O)C(C)(C)C)C3)C2)c2ccccc12` are within 1.5-fold of each other in IC50: 1.22 µM for the first, 1.09 µM for the second.

Compared with `O=C(NCc1ccccc1)c1nn(CCO)c2c1CN(Cc1ccccc1-c1ccco1)CC2`, `O=C(NCc1cccc2ccccc12)c1nn(CCO)c2c1CN(CCc1ccccc1)CC2` is 4-fold higher in IC50: 6.78 µM for the first, 27 µM for the second. The first is the more potent here.

`O=C(NCc1ccccc1)c1nn(-c2ccccc2)c2c1CN(Cc1c[nH]c3ccccc13)CC2` and `Cn1nc(C(=O)NCc2ccccc2)c2c1CCN(Cc1c[nH]c3cc(OCc4ccccc4)ccc13)C2` are within 1.5-fold of each other in IC50: 2.27 µM for the first, 1.7 µM for the second.

First: Cn1nc(C(=O)NCc2ccccc2)c2c1CCN(Cc1noc3c1CCCC3)C2
Second: Cn1nc(C(=O)NCc2ccccc2)c2c1CCN(Cc1cccc(-c3ccccc3)c1)C2
The IC50 of the first is 11-fold higher: 44.8 µM for the first, 4.06 µM for the second. The second is the more potent here.

Compared with `COc1ccc(CN2CCc3c(c(C(=O)NCc4cccc5cccnc45)nn3CCO)C2)c2ccccc12`, `O=C(NCc1cccc2ccccc12)c1nn(CCO)c2c1CN(Cc1cccc3cccnc13)CC2` is 2.2-fold higher in IC50: 2.96 µM for the first, 6.43 µM for the second.

Going from `COc1ccc(CN2CCc3c(c(C(=O)NCc4cccc5ccccc45)nn3-c3cnccn3)C2)c2ccccc12` to `COc1ccc(CN2CCc3c(c(C(=O)NCc4cccc5ccccc45)nn3-c3ccccc3)C2)c2ccccc12`, the IC50 falls from 2.59 µM to 0.24 µM (11-fold).

Compared with `O=C(NCc1ccccc1)c1nn(CCO)c2c1CN(Cc1ccc(OC(F)(F)F)cc1)CC2`, `O=C(NCc1ccccc1)c1nn(CCO)c2c1CN(Cc1ccccc1C(F)(F)F)CC2` is 4.6-fold higher in IC50: 12.5 µM for the first, 57.6 µM for the second.

Compared with `COc1ccc(CN2CCc3c(c(C(=O)NCc4cccc5[nH]ccc45)nn3CCO)C2)c2ccccc12`, `COc1ccc(CN2CCc3c(c(C(=O)NCc4cccc(C)c4)nn3CCO)C2)c2ccccc12` is 7.5-fold higher in IC50: 1.02 µM for the first, 7.69 µM for the second.

First: COC(=O)c1cccc2c(CN3CCc4c(c(C(=O)NCc5ccccc5)nn4CCO)C3)c[nH]c12
Second: O=C(NCc1cccc2ccccc12)c1nn(CCO)c2c1CN(Cc1c[nH]c3c(C(=O)O)cccc13)CC2
The IC50 of the first is 3.2-fold lower: 13.2 µM for the first, 42.6 µM for the second.

Going from `O=C(NCc1cccc2ccccc12)c1nn(CCO)c2c1CN(Cc1c[nH]c3cc(OCc4ccccc4)ccc13)CC2` to `COC(=O)c1ccc2c(CN3CCc4c(c(C(=O)NCc5cccc6ccccc56)nn4CCO)C3)c[nH]c2c1`, the IC50 falls from 9.9 µM to 2.7 µM (3.7-fold).

First: COc1ccc(CN2CCc3nn4c(c3C2)C(=O)N(Cc2cccc3ccccc23)CC4)c2ccccc12
Second: COc1ccc(CN2CCc3nn(CCO)c(C(=O)NCc4cccc5ccccc45)c3C2)c2ccccc12
The IC50 of the first is 5.6-fold lower: 4.28 µM for the first, 23.9 µM for the second.

Compared with `O=C(NCc1ccccc1)c1nn(CCO)c2c1CN(Cc1cccn1-c1ccccn1)CC2`, `Cc1ccccc1-c1ccc(CN2CCc3c(c(C(=O)NCc4ccccc4)nn3CCO)C2)cc1` is 3.8-fold lower in IC50: 10.4 µM for the first, 2.76 µM for the second. The second is the more potent here.

Compared with `COc1ccc(CN2CCc3c(c(C(=O)NCc4cccc5ccccc45)nn3Cc3ccccc3)C2)c2ccccc12`, `COc1ccc(CN2CCc3[nH]nc(C(=O)NCc4cccc5ccccc45)c3C2)c2ccccc12` is 3.1-fold lower in IC50: 3.41 µM for the first, 1.11 µM for the second.

Going from `O=C(NCc1cccc2ccccc12)c1nn(CCO)c2c1CN(Cc1cccc(-c3ccccc3)c1)CC2` to `O=C(NCc1cccc2ccccc12)c1nn(CCO)c2c1CN(Cc1ccc(-c3ccccc3)cc1)CC2`, the IC50 falls from 1.5 µM to 0.88 µM (1.7-fold). The second is the more potent here.

`CC(NC(=O)c1nn(CCO)c2c1CN(CC1Cc3ccccc3CN1C)CC2)c1ccccc1` (stereo not drawn) and `CC(NC(=O)c1nn(CCO)c2c1CN(Cc1cccc3c1OCO3)CC2)c1ccccc1` (stereo not drawn) are within 1.5-fold of each other in IC50: 13.5 µM for the first, 17.6 µM for the second.

Compared with `O=C(NCc1ccccc1)c1nn(CCO)c2c1CN(CC1=CC(=O)C3C=C(Cl)C=CC3O1)CC2` (stereo not drawn), `O=C(NCc1ccccc1)c1nn(CCO)c2c1CN(Cc1cccc(OC(F)F)c1)CC2` is 1.8-fold lower in IC50: 35.6 µM for the first, 19.7 µM for the second. The second is the more potent here.

`COc1cc(CN2CCc3c(c(C(=O)NCc4ccccc4)nn3CCO)C2)cc2c1OCO2` and `O=C(NCc1cccc2ccccc12)c1nn(CCO)c2c1CN(Cc1cccc3c1OCO3)CC2` are within 1.5-fold of each other in IC50: 11 µM for the first, 15.9 µM for the second.

`CC(NC(=O)c1nn(CCO)c2c1CN(Cc1ccc3ccoc3c1)CC2)c1ccccc1` (stereo not drawn) and `COc1ccc2cc(CN3CCc4c(c(C(=O)NCc5cccc6ccccc56)nn4CCO)C3)ccc2c1` are within 1.5-fold of each other in IC50: 16.2 µM for the first, 18 µM for the second.

`NCCn1nc(C(=O)NCc2cccc3ccccc23)c2c1CCN(Cc1ccc(Cl)cc1)C2` and `NCCn1nc(C(=O)NCc2cccc3ccccc23)c2c1CCN(Cc1ccc(Cl)c(Cl)c1)C2` are within 1.5-fold of each other in IC50: 0.98 µM for the first, 1.27 µM for the second.

First: Cn1nc(C(=O)NCc2ccc3ccccc3c2)c2c1CCN(Cc1c[nH]c3ccccc13)C2
Second: O=C(NCc1cccc2ccccc12)c1nn(CCO)c2c1CN(Cc1cccc3cc[nH]c13)CC2
The IC50 of the first is 1.8-fold lower: 2.62 µM for the first, 4.64 µM for the second.

Compared with `O=C(CC1CC1)N1CCc2c(c(C(=O)N3CCc4ccccc4C3)nn2Cc2ccccn2)C1`, `O=C(c1nn(Cc2ccccn2)c2c1CN(Cc1ccccc1)CC2)N1CCc2ccccc2C1` is 5.8-fold lower in IC50: 55.1 µM for the first, 9.47 µM for the second. The second is the more potent here.

Compared with `CC(NC(=O)c1nn(CCO)c2c1CN(C(=O)c1ncc3sccn13)CC2)c1ccccc1` (stereo not drawn), `Cc1nc2sccn2c1CN1CCc2c(c(C(=O)NCc3ccccc3)nn2CCO)C1` is 1.9-fold lower in IC50: 50.5 µM for the first, 27.2 µM for the second. The second is the more potent here.

Compared with `O=C(NCc1ccccc1)c1nn(CCO)c2c1CN(Cc1cc3ccccc3c3ccccc13)CC2`, `COc1ccc(CN2CCc3c(c(C(=O)NCc4cc(F)cc5ccccc45)nn3CCO)C2)c2ccccc12` is 3.3-fold higher in IC50: 3.36 µM for the first, 11.1 µM for the second.

First: Cc1ccc(CCN2CCc3c(c(C(=O)NCc4cccc5ccccc45)nn3CCO)C2)cc1
Second: COc1ccc(CN2CCc3c(c(C(=O)NCc4cccc5ccccc45)nn3CCN)C2)c2c1CCCC2
The IC50 of the first is 200-fold higher: 114 µM for the first, 0.57 µM for the second. The second is the more potent here.

Compared with `C=C(C)C1CC=C(CN2CCc3c(c(C(=O)NCc4ccccc4)nn3CCO)C2)CC1` (stereo not drawn), `O=C(NCc1ccccc1)c1nn(CCO)c2c1CN(CC(c1ccccc1)c1ccccc1)CC2` is 3.2-fold lower in IC50: 16.9 µM for the first, 5.32 µM for the second. The second is the more potent here.
